These compounds were tested against H1047R PIK3CA enzyme (Homo sapiens, UniProt P42336, H1047R) (assay: ADP-Glo Biochemical PIK3CA Kinase Assay).
H1047R PIK3CA enzyme, sequence (P42336 whole entry H1047R): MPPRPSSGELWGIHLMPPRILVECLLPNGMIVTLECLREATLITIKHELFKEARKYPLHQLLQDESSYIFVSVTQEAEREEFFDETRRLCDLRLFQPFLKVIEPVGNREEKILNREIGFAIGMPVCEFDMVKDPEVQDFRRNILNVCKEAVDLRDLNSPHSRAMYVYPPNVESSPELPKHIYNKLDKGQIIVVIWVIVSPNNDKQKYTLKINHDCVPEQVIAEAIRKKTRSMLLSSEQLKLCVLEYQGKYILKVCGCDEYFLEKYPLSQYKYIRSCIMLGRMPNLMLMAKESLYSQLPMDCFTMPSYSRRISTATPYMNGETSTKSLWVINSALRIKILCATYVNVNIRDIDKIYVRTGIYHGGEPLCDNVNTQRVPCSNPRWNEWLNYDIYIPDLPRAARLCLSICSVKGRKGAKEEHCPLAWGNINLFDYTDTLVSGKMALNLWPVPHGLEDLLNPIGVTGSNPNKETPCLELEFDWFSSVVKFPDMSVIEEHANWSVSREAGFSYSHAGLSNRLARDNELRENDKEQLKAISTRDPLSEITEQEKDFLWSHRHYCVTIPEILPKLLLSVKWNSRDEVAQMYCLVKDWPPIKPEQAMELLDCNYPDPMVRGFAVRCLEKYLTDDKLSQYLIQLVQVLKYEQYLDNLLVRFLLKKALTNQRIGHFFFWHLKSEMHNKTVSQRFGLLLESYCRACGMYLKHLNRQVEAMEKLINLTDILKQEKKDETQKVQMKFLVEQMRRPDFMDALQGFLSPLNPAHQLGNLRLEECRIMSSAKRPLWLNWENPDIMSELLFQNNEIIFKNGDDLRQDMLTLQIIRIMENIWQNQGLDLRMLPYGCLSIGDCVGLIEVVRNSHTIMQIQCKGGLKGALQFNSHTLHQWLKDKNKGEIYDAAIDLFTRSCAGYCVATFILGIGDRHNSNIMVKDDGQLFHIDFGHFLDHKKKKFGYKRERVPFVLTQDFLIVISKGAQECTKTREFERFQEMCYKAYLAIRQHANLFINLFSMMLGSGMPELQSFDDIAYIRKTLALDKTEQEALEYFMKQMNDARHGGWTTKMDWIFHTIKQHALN
H1047R PIK3CA enzyme, sequence (P27986 whole entry partner): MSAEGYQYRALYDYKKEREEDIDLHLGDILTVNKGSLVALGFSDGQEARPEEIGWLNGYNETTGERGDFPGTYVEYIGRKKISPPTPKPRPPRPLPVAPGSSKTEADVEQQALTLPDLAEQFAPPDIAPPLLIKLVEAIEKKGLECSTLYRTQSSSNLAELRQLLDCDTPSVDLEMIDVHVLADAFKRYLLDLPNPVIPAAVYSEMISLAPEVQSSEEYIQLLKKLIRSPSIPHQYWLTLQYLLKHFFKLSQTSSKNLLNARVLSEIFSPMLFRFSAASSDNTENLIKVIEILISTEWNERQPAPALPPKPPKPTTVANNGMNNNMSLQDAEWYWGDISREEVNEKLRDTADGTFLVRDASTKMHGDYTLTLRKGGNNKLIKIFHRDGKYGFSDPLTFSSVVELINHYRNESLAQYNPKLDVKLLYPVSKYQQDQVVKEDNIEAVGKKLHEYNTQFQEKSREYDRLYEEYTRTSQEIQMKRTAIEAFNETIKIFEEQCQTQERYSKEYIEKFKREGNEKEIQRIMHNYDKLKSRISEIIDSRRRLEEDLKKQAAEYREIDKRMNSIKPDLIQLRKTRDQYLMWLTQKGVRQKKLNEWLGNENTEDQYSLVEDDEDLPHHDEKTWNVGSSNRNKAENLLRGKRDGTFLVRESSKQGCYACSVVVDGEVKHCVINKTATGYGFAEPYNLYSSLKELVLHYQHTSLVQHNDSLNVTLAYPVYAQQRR

Row | IC50 [nM] | Compound
1 | 10000 to 100000 | O=C1N[C@H](c2cc(F)ccc2Cl)c2c(NC(=O)N3C[C@@H](O)c4cccc(F)c43)cccc21 (single isomer, unassigned) [Compound I-2208]
2 | 1000 to 10000 | Cc1cccc(C(=O)Nc2cc(Br)cc3c2C(c2cc(F)ccc2Cl)NC3=O)c1 (stereo not drawn) [Compound I-520]
3 | 100 to 500 | Cc1c(F)cccc1C1NC(=O)c2cc(Br)cc(NC(=O)c3cc(F)cc(C(F)(F)F)c3)c21 (stereo not drawn) [Compound I-751]
4 | 500 to 1000 | Cn1cc(-c2cc(NC(=O)c3cc(F)cc(C(F)(F)F)c3)c3c(n2)C(=O)N[C@@H]3c2cc(F)ccc2Cl)cn1 [Compound I-186]
5 | 1000 to 10000 | O=C(Nc1cc(Br)cc2c1C(c1c(F)cccc1Cl)NC2=O)c1cc(F)cc(C(F)(F)F)c1 (stereo not drawn) [Compound I-681]
6 | 500 to 1000 | Cc1ccccc1[C@@H]1NC(=O)c2nccc(NC(=O)N3C[C@H](C)c4ccccc43)c21 (single isomer, unassigned) [Compound I-302]
7 | 10000 to 100000 | O=C(Nc1cccc2c1C([C@@H]1CCCC[C@H]1O)NC2=O)c1cc(F)cc(C(F)(F)F)c1 (single isomer, unassigned) [Compound I-1971]
8 | 1000 to 10000 | O=C1N[C@H](c2cc(F)ccc2Cl)c2c(NC(=O)N3C[C@H](O)c4cccc(F)c43)cccc21 (single isomer, unassigned) [Compound I-2207]
9 | 1000 to 10000 | O=C1N[C@@H](c2cc(F)ccc2Cl)c2c(NC(=O)N3C[C@@](O)(C(F)F)c4cc(F)ccc43)cc(Cl)cc21 (single isomer, unassigned) [Compound I-2588]
10 | 10000 to 100000 | CC(=O)Nc1cccc2c1C(c1cc(F)ccc1Cl)NC2=O (stereo not drawn) [Compound I-1581]
11 | ≤ 100 | COc1nccc(Oc2cc(NC(=O)c3cc(F)cc(C(F)(F)F)c3)c3c(c2)C(=O)NC3c2cc(F)ccc2Cl)n1 (stereo not drawn) [Compound I-1148]
12 | 1000 to 10000 | Cc1ccccc1CC1NC(=O)c2cccc(NC(=O)c3cc(F)cc(C(F)(F)F)c3)c21 (stereo not drawn) [Compound I-841]
13 | ≤ 100 | Cc1ncc(-c2cc(NC(=O)c3cc(F)cc(C(F)(F)F)c3)c3c(c2)C(=O)NC3c2cc(F)ccc2Cl)c(N)n1 (stereo not drawn) [Compound I-1122]
14 | 1000 to 10000 | O=C(Nc1cccc2c1C(c1cccc3ccccc13)NC2=O)c1cc(F)cc(C(F)(F)F)c1 (stereo not drawn) [Compound I-431]
15 | ≤ 100 | N#CCc1cc(NC(=O)N2C[C@@H](O)c3cc(F)ccc32)c2c(c1)C(=O)N[C@@H]2c1cc(F)ccc1Cl (single isomer, unassigned) [Compound I-2538]
16 | 100 to 500 | Cc1ccccc1C1NC(=O)c2cncc(NC(=O)c3cc(F)cc(C(F)(F)F)c3)c21 (stereo not drawn) [Compound I-233]
17 | 10000 to 100000 | O=C1NC(c2cc(F)ccc2Cl)c2c(NC(=O)C3CCCC(O)C3)cc(-c3ccc4ncnn4c3)cc21 (stereo not drawn) [Compound I-1723]
18 | 10000 to 100000 | O=C(Nc1cccc2c1C(Cc1ccccc1)NC2=O)c1cc(F)cc(C(F)(F)F)c1 (stereo not drawn) [Compound I-1673]
19 | 1000 to 10000 | O=C(Nc1cc(Br)cc2c1C(c1cc(F)ccc1Cl)NC2=O)c1ccc(OC(F)(F)F)cc1 (stereo not drawn) [Compound I-524]
20 | 1000 to 10000 | O=C1NC(c2cc(F)ccc2Cl)c2c(NC(=O)C3CCCc4ccccc43)cc(Br)cc21 (stereo not drawn) [Compound I-631]
21 | 1000 to 10000 | O=C(Nc1cc(-c2cn3ncnc3cc2F)cc2c1[C@@H](c1cc(F)ccc1Cl)NC2=O)c1cc(F)cc(C(F)(F)F)c1 (stereo in doubt) [Compound I-1701]

Row | IC50 [nM] | Compound
22 | 1000 to 10000 | O=C1N[C@@H](c2cc(F)ccc2Cl)c2c(NC(=O)N3C[C@](O)(C(F)(F)F)c4cc(F)ccc43)cc(-n3ccnn3)cc21 (single isomer, unassigned) [Compound I-2550]
23 | ≤ 100 | CC(=O)c1cc(NC(=O)c2cc(F)cc(C(F)(F)F)c2)c2c(c1)C(=O)NC2c1cc(F)ccc1C(F)F (stereo not drawn) [Compound I-238]
24 | 1000 to 10000 | Cc1cnccc1-c1cc(NC(=O)c2cc(F)cc(C(F)(F)F)c2)c2c(c1)C(=O)N[C@@H]2c1cc(F)ccc1Cl (stereo in doubt) [Compound I-1011]
25 | ≤ 100 | O=C(Nc1cccc2c1C(c1cc(F)ccc1Br)NC2=O)c1cc(F)cc(C(F)(F)F)c1 (stereo not drawn) [Compound I-628]
26 | 10000 to 100000 | O=C1NC(c2cc(F)ccc2Cl)c2c(NC(=O)C3CCNCC3)cc(-c3ccc4ncnn4c3)cc21 (stereo not drawn) [Compound I-1751]
27 | 100 to 500 | O=C(Nc1cc(OC2CC(O)C2)cc2c1C(c1cc(F)ccc1Cl)NC2=O)c1cc(F)cc(C(F)(F)F)c1 (stereo not drawn) [Compound I-1132]
28 | ≤ 100 | CC(C)n1cc(-c2cc(NC(=O)c3cc(F)cc(C(F)(F)F)c3)c3c(n2)C(=O)NC3c2cc(F)ccc2Cl)ccc1=O (stereo not drawn) [Compound I-593]
29 | 100 to 500 | Cc1ccc2c(c1)N(C(=O)Nc1cccc3c1C(c1cc(F)ccc1Cl)NC3=O)CC2 (stereo not drawn) [Compound I-2470]
30 | 10000 to 100000 | O=C1N[C@@H](c2cc(F)ccc2Cl)c2c(NC(=O)[C@@H]3CC[C@H](O)C3)cc(Br)cc21 (single isomer, unassigned) [Compound I-2104]
31 | ≤ 100 | O=C(Nc1cc(-c2cnc3ncc(Cl)n3c2)cc2c1[C@H](c1cc(F)ccc1Cl)NC2=O)c1cc(F)cc(C(F)(F)F)c1 [Compound I-1985]
32 | 10000 to 100000 | Cn1cc(-c2ccc(Cl)c(C3NC(=O)c4cccc(NC(=O)c5cc(F)cc(C(F)(F)F)c5)c43)c2)cn1 (stereo not drawn) [Compound I-489]
33 | 1000 to 10000 | O=C(Nc1cc(Br)cc2c1C(c1cc(F)ccc1Cl)NC2=O)c1cccc(C(F)F)c1 (stereo not drawn) [Compound I-570]
34 | 10000 to 100000 | O=C(Nc1cc(Br)cc2c1C(c1cc(F)ccc1Cl)NC2=O)c1cccc2c1OCCC2 (stereo not drawn) [Compound I-601]
35 | ≤ 100 | N#Cc1cccc(S(=O)(=O)Cc2cc(NC(=O)c3cc(F)cc(C(F)(F)F)c3)c3c(c2)C(=O)NC3c2cc(F)ccc2Cl)c1 (stereo not drawn) [Compound I-1491]
36 | 500 to 1000 | O=C(Nc1cc(C2=CN3CCN=C3C=C2)cc2c1[C@@H](c1cc(F)ccc1Cl)NC2=O)c1cc(F)cc(C(F)(F)F)c1 [Compound I-2091]
37 | 10000 to 100000 | O=C1NC(c2cc(F)ccc2Cl)c2c(Nc3nncc4ccccc34)cc(Br)cc21 (stereo not drawn) [Compound I-760]
38 | ≤ 100 | O=C(Nc1cc(NC(=O)C2CS(=O)(=O)C2)cc2c1C(c1cc(F)ccc1Cl)NC2=O)c1cc(F)cc(C(F)(F)F)c1 (stereo not drawn) [Compound I-351]
39 | ≤ 100 | O=C(Nc1cc(CC(O)CO)cc2c1C(c1cc(F)ccc1Cl)NC2=O)c1cc(F)cc(C(F)(F)F)c1 (stereo not drawn) [Compound I-1376]
40 | ≤ 100 | N#Cc1nnc2ccc(-c3cc(NC(=O)c4cc(F)cc(C(F)(F)F)c4)c4c(c3)C(=O)NC4c3cc(F)ccc3Cl)cn12 (stereo not drawn) [Compound I-1708]
41 | 1000 to 10000 | Cc1ccccc1-n1[nH]c(=O)c2cccc(N)c21 [Compound I-64]
42 | 1000 to 10000 | CC(C)[C@]1(O)CN(C(=O)Nc2cccc3c2[C@@H](c2cc(F)ccc2Cl)NC3=O)c2ccc(F)cc21 (single isomer, unassigned) [Compound I-2455]

Row | IC50 [nM] | Compound
43 | 10000 to 100000 | O=C1NC(c2cc(F)ccc2Cl)c2c(NC(=O)C3CC4(C3)CC4(F)F)cc(Br)cc21 (stereo not drawn) [Compound I-1634]
44 | 10000 to 100000 | C[C@H](c1nn[nH]c1C(=O)Nc1cccc2c1[C@H](c1cc(F)ccc1Cl)NC2=O)C(F)(F)F (single isomer, unassigned) [Compound I-2269]
45 | 1000 to 10000 | O=C1N[C@@H](c2cc(F)ccc2Cl)c2c(NC(=O)N3C[C@](O)(C(F)(F)F)c4ccccc43)cc(Cl)cc21 (single isomer, unassigned) [Compound I-2507]
46 | ≤ 100 | O=C(Nc1cc(CNC2CC(F)(F)C2)cc2c1C(c1cc(F)ccc1Cl)NC2=O)c1cc(F)cc(C(F)(F)F)c1 (stereo not drawn) [Compound I-349]
47 | 10000 to 100000 | O=C1NC(c2cc(F)ccc2Cl)c2c(Nc3ncnc4ccccc34)cc(Br)cc21 (stereo not drawn) [Compound I-864]
48 | ≤ 100 | O=C(Nc1cc(N[C@H]2C[C@@H](O)C2)cc2c1C(c1cc(F)ccc1Cl)NC2=O)c1cc(F)cc(C(F)(F)F)c1 (mixture of isomers) [Compound I-478]
49 | 100 to 500 | O=C1NC(c2cc(F)ccc2Cl)c2c(NC(=O)C3CCCC(C(F)(F)F)C3)cc(Br)cc21 (mixture of isomers) [Compound I-1323]
50 | ≤ 100 | O=C(Nc1cc(-c2cn3cc(C(F)F)nc3cn2)cc2c1C(c1cc(F)ccc1Cl)NC2=O)c1cc(F)cc(C(F)(F)F)c1 (stereo not drawn) [Compound I-2065]
51 | ≤ 100 | O=C(Nc1cc(-c2cnn(-c3nccs3)c2)cc2c1C(c1cc(F)ccc1Cl)NC2=O)c1cc(F)cc(C(F)(F)F)c1 (stereo not drawn) [Compound I-1572]
52 | 100 to 500 | C[C@@]1(C(=O)Nc2cc(Br)cc3c2[C@@H](c2cc(F)ccc2Cl)NC3=O)CCC[C@H](C(F)(F)F)C1 (single isomer, unassigned) [Compound I-2264]
53 | ≤ 100 | O=C(Nc1cc(-c2cc(F)c3ncnn3c2)cc2c1C(c1cc(F)ccc1Cl)NC2=O)c1cc(F)cc(C(F)(F)F)c1 (stereo not drawn) [Compound I-1653]
54 | 10000 to 100000 | N#Cc1cc(-c2ccc(=O)[nH]c2)cc2c1C(c1cc(F)ccc1Cl)NC2=O (stereo not drawn) [Compound I-2089]
55 | 1000 to 10000 | N#Cc1ccc2c(c1)N(C(=O)Nc1cccc3c1C(c1cc(F)ccc1Cl)NC3=O)CC2 (stereo not drawn) [Compound I-2427]
56 | 500 to 1000 | N#CCOc1cc(NC(=O)c2cc(F)cc(C(F)(F)F)c2)c2c(c1)C(=O)N[C@@H]2c1cc(F)ccc1Cl [Compound I-1887]
57 | ≤ 100 | C[C@@](O)(CC#N)c1cc(NC(=O)c2cc(F)cc(C(F)(F)F)c2)c2c(c1)C(=O)N[C@H]2c1cc(F)ccc1Cl (single isomer, unassigned) [Compound I-1395]
58 | 100 to 500 | O=C(Nc1cc(NC2=NCC3(CC3)O2)cc2c1C(c1cc(F)ccc1Cl)NC2=O)c1cc(F)cc(C(F)(F)F)c1 (stereo not drawn) [Compound I-2327]
59 | 1000 to 10000 | CCC[C@@]1(O)CN(C(=O)Nc2cccc3c2[C@H](c2cc(F)ccc2Cl)NC3=O)c2ccc(F)cc21 (single isomer, unassigned) [Compound I-2459]
60 | 10000 to 100000 | Cc1ccccc1C1NC(=O)c2cccc(NC(=O)c3cc(Br)sn3)c21 (stereo not drawn) [Compound I-453]
61 | 10000 to 100000 | COc1cccc2scc(C(=O)Nc3cccc4c3C(c3ccccc3C)NC4=O)c12 (stereo not drawn) [Compound I-78]
62 | 100 to 500 | N#CCCc1cc(NC(=O)N2C[C@@H](O)c3cc(F)ccc32)c2c(c1)C(=O)N[C@H]2c1cc(F)ccc1Cl (single isomer, unassigned) [Compound I-2347]
63 | 1000 to 10000 | O=C(Nc1cc(Br)cc2c1C(c1cc(F)ccc1Cl)NC2=O)c1ccc(C(F)(F)F)s1 (stereo not drawn) [Compound I-1427]
